Measured values taken from ChEMBL document CHEMBL4184317, “Discovery of Tetrahydroquinoxalines as Bromodomain and Extra-Terminal Domain (BET) Inhibitors with Selectivity for the Second Bromodomain” (J Med Chem, 2018).
pIC50, pKd: −log10 of the molar value. In brackets after ≈: the same amount, converted by molar mass.

Legend:
[1] = molecular target: T1, Bromodomain-containing protein 2 (Homo sapiens, UniProt P25440); assay: Inhibition of human BRD2 BD2 after 30 mins by TR-FRET assay
Target sequence in this assay (P25440 whole entry): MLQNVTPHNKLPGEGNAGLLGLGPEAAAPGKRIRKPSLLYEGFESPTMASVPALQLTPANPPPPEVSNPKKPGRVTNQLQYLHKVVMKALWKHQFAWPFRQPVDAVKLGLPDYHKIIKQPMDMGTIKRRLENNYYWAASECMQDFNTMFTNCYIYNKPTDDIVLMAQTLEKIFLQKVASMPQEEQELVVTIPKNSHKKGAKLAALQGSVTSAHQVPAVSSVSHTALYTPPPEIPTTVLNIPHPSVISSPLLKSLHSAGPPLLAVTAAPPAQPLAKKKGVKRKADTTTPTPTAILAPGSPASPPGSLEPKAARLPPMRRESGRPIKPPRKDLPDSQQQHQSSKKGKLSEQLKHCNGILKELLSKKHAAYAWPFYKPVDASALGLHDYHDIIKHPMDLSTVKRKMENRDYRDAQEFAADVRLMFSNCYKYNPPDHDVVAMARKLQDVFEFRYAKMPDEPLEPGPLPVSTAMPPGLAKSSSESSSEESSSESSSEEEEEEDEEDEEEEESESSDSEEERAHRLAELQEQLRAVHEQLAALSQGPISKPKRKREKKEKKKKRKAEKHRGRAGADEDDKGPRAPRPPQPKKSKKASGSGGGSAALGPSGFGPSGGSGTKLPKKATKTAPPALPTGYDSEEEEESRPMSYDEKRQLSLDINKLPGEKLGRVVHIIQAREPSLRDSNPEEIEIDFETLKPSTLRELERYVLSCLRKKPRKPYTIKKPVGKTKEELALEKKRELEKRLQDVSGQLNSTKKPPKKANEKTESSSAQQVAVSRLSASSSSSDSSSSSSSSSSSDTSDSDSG

[2] = molecular target: T2, Bromodomain-containing protein 3 (Homo sapiens, UniProt Q15059); assay: Inhibition of BRD3 BD1 (unknown origin) after 30 mins by TR-FRET assay
Target sequence in this assay (Q15059 whole entry): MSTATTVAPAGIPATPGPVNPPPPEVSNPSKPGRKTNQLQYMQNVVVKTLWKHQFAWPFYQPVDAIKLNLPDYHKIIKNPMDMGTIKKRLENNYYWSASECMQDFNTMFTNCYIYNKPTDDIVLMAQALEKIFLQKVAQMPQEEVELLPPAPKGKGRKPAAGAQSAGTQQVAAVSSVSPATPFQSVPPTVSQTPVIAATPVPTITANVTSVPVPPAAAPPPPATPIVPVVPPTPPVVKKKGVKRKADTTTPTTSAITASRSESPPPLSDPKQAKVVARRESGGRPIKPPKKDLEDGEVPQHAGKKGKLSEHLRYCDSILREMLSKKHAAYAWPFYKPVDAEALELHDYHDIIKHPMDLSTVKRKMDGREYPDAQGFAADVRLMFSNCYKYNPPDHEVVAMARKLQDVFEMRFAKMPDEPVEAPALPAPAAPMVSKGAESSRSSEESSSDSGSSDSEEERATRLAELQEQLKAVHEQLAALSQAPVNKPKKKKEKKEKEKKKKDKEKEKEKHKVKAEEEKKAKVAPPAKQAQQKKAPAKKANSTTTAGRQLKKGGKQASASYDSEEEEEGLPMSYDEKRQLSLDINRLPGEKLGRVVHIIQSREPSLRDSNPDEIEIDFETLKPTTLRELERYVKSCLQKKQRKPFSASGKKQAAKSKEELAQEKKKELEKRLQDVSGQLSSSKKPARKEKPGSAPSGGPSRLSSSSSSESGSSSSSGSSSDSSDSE

[3] = molecular target: T3, Bromodomain testis-specific protein (Homo sapiens, UniProt Q58F21); assay: Inhibition of BRDT BD2 (unknown origin) after 30 mins by TR-FRET assay
[4] = molecular target: T4, Peregrin (Homo sapiens, UniProt P55201); assay: Displacement of Alexa 647 ligand from 6H-Flag-Tev-BRPF1 (622 to 738 residues) (unknown origin) expressed in Escherichia coli BL21 (DE3) cells after 30 mins by TR-FRET assay
T4 sequence (P55201 whole entry): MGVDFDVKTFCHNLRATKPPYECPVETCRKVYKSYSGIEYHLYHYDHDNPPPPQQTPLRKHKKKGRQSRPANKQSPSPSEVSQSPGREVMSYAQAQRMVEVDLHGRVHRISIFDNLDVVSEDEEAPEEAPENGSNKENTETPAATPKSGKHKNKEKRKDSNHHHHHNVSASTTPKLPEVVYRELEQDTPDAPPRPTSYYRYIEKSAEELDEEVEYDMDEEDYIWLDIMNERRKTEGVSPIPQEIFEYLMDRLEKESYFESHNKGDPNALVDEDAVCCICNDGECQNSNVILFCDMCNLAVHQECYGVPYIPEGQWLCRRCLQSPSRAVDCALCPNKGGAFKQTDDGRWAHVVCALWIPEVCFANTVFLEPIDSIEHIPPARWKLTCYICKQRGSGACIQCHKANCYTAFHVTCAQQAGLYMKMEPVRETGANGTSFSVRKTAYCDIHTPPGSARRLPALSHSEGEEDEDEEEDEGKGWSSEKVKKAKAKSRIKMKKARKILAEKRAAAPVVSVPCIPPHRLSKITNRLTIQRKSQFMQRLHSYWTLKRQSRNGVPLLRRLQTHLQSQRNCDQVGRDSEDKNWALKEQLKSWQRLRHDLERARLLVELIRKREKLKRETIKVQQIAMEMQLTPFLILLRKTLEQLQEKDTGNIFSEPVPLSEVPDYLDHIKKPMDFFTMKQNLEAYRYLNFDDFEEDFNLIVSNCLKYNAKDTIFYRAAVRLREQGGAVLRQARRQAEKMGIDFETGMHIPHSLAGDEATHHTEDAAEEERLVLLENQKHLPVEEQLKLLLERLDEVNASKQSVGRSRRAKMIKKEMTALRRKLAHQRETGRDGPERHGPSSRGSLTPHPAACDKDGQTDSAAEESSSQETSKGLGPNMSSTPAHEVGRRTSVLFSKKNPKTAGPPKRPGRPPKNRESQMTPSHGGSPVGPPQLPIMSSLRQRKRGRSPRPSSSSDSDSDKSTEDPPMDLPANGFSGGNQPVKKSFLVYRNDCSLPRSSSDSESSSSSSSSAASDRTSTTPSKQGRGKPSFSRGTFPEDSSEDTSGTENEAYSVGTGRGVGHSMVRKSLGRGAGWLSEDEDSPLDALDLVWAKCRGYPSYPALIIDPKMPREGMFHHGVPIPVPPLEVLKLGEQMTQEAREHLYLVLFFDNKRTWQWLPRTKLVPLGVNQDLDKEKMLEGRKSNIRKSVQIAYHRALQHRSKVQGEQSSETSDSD

[5] = Permeability of the compound by PAMPA; type: ADME; conditions: read-out: permeability
[6] = Solubility of the compound in FaSSIF at pH 6.5 after 16 hrs by HPLC method; type: physicochemical
[7] = molecular target: T5, Bromodomain-containing protein 4 (Homo sapiens, UniProt O60885); assay: Binding affinity to human partial length DNA-tagged BRD4 isoform long BD1 expressed in bacterial by BROMOscan method
[8] = molecular target: T1, Bromodomain-containing protein 2; assay: Binding affinity to human partial length DNA-tagged BRD2 isoform 1 BD2 expressed in bacterial by BROMOscan method
Target sequence in this assay (P25440 whole entry): as the sequence (P25440 whole entry) above

[9] = molecular target: T2, Bromodomain-containing protein 3; assay: Binding affinity to human partial length DNA-tagged BRD3 BD1 expressed in bacterial by BROMOscan method
Target sequence in this assay (Q15059 whole entry): as the sequence (Q15059 whole entry) above

[10] = molecular target: T2, Bromodomain-containing protein 3; assay: Binding affinity to human partial length DNA-tagged BRD3 BD2 expressed in bacterial by BROMOscan method
Target sequence in this assay (Q15059 whole entry): as above

[11] = molecular target: T3, Bromodomain testis-specific protein; assay: Binding affinity to human partial length DNA-tagged BRDT isoform b BD1 expressed in bacterial by BROMOscan method
[12] = molecular target: T4, Peregrin; assay: Binding affinity to human partial length DNA-tagged BRPF1 expressed in bacterial by BROMOscan method
[13] = molecular target: Transcription initiation factor TFIID subunit 1 (Homo sapiens, UniProt P21675); assay: Binding affinity to human partial length DNA-tagged TAF1 BD2 expressed in bacterial by BROMOscan method
[14] = molecular target: ATPase family AAA domain-containing protein 2 (Homo sapiens, UniProt Q6PL18); assay: Binding affinity to human partial length DNA-tagged ATAD2A expressed in bacterial by BROMOscan method
[15] = molecular target: Bromodomain-containing protein 1 (Homo sapiens, UniProt O95696); assay: Binding affinity to human partial length DNA-tagged BRD1 expressed in bacterial by BROMOscan method
[16] = molecular target: Chromatin remodeling regulator CECR2 (Homo sapiens, UniProt Q9BXF3); assay: Binding affinity to human partial length DNA-tagged CECR2 expressed in bacteria by BROMOscan method
[17] = molecular target: Histone acetyltransferase KAT2A (Homo sapiens, UniProt Q92830); assay: Binding affinity to human partial length DNA-tagged GCN5L2 expressed in bacteria by BROMOscan method
[18] = molecular target: Protein polybromo-1 (Homo sapiens, UniProt Q86U86); assay: Binding affinity to human partial length DNA-tagged PBRM1 BD5 expressed in bacteria by BROMOscan method
[19] = molecular target: E3 ubiquitin-protein ligase TRIM33 (Homo sapiens, UniProt Q9UPN9); assay: Binding affinity to human partial length DNA-tagged TRIM33(PHD,Bromo.) expressed in bacteria by BROMOscan method
[20] = molecular target: T5, Bromodomain-containing protein 4; assay: Selectivity ratio of Kd for human partial length DNA-tagged BRD4 isoform long BD1 to Kd for human partial length DNA-tagged BRD4 isoform long BD2
[21] = molecular target: T1, Bromodomain-containing protein 2; assay: Selectivity ratio of Kd for human partial length DNA-tagged BRD2 isoform 1 BD1 to Kd for human partial length DNA-tagged BRD2 isoform 1 BD2
Target sequence in this assay (P25440 whole entry, looked up): as the sequence (P25440 whole entry) above

[22] = molecular target: T2, Bromodomain-containing protein 3; assay: Selectivity ratio of Kd for human partial length DNA-tagged BRD3 BD1 to Kd for human partial length DNA-tagged BRD3 BD2
[23] = species on record: Homo sapiens; assay: Selectivity ratio of Kd for human partial length DNA-tagged BRPF1 to Kd for human partial length DNA-tagged BRD4 isoform long BD2
[24] = species on record: Homo sapiens; assay: Selectivity ratio of IC50 for human BRD2 BD1 to IC50 for human BRD2 BD2
[25] = molecular target: Bromodomain-containing protein 4 (Homo sapiens, UniProt O60885, Y390A)
[26] = molecular target: Bromodomain-containing protein 4 (Homo sapiens, UniProt O60885, Y97A)
[27] = physchem; conditions: buffer, pH 7.4
Description: Chromatographic hydrophobicity index, log D of the compound at pH 7.4 by HPLC method

Chain of E3 ubiquitin-protein ligase TRIM33 (Q9UPN9 whole entry, canonical isoform): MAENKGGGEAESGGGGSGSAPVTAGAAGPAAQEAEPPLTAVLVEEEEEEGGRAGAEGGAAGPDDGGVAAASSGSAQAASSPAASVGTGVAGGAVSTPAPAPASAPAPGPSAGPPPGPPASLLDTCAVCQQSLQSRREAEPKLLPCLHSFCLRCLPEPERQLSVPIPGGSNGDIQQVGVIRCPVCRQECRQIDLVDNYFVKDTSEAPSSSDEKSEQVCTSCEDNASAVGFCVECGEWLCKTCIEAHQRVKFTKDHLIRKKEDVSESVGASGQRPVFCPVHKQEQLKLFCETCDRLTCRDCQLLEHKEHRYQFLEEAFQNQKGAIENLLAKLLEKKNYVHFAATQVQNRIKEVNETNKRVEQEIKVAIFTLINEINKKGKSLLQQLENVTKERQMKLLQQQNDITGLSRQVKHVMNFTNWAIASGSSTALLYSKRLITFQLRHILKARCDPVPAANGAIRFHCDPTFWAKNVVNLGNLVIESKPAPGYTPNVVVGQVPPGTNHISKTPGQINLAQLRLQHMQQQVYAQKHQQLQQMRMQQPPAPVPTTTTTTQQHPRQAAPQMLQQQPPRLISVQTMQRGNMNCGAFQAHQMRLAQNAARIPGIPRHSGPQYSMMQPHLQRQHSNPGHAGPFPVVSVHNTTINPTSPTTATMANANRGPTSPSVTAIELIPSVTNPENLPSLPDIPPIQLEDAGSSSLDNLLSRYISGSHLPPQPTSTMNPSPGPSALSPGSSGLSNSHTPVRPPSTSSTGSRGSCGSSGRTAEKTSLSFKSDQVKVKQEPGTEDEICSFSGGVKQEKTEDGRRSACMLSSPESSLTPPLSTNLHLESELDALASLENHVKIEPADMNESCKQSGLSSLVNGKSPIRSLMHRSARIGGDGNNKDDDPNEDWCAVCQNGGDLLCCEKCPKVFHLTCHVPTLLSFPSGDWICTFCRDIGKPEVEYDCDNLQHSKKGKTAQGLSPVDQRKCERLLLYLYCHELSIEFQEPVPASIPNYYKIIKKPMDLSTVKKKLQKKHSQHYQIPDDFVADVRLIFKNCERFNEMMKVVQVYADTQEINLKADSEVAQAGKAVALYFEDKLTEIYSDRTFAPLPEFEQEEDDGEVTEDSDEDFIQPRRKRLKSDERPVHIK
Chain of Chromatin remodeling regulator CECR2 (Q9BXF3 whole entry): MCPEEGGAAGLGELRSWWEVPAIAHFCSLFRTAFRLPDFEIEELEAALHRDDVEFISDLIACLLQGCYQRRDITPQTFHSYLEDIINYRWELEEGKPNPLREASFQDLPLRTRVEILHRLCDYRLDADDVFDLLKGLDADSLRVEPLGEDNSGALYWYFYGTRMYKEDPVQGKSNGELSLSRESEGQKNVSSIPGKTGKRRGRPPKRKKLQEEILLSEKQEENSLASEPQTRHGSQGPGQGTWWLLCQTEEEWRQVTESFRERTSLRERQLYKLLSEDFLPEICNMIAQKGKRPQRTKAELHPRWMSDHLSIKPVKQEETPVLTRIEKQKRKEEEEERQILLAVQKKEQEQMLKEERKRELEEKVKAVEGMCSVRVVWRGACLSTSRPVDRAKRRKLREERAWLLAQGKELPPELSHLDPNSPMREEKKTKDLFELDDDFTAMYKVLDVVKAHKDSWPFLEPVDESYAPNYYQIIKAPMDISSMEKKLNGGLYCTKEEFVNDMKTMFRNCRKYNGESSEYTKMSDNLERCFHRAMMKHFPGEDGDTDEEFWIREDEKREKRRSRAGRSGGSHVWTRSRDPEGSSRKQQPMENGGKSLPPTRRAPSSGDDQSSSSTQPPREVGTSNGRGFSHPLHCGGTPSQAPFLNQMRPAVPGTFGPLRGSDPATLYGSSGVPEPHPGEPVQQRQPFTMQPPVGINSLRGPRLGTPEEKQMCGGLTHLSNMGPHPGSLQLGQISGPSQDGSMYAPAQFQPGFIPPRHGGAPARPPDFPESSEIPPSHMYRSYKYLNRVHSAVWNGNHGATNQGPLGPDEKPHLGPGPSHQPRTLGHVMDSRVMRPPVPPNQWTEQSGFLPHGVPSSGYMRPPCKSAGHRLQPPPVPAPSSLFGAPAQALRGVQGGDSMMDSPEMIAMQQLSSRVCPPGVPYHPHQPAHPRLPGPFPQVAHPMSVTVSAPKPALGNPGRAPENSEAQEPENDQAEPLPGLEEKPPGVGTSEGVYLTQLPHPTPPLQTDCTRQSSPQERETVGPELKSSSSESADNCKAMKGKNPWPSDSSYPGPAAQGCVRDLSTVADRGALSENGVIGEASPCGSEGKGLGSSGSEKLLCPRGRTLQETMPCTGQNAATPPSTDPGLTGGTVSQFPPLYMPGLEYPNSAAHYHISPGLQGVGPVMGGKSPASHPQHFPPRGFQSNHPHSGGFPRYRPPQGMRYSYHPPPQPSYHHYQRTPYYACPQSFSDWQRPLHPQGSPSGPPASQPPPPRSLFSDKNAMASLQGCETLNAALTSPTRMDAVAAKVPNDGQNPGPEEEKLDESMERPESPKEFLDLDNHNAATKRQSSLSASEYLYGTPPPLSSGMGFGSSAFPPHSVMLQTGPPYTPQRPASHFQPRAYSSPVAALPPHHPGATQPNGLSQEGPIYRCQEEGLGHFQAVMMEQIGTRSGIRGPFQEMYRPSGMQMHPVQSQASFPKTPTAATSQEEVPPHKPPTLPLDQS

For `CC(=O)N1c2ccc(C3=CCNCC3)cc2N(Cc2ccccc2CO)C[C@@H]1C1CC1`, the pIC50 [1] was 6.50, the pIC50 [2] was 5.90 and the pIC50 [3] was 6.70. It also gave a pIC50 [4] of 4.70, a Papp [5] of 11 ×10⁻⁶ cm/s and a solubility at 16 h [6] of 386 µg/mL (≈ 924 µM). The pKd [7] was 5.81, the pKd [8] was 7.49 and the pKd [9] was 6.04. For the same molecule, the pKd [10] was 7.71, the pKd [11] was 5.73 and the pKd [12] was 5.61. For the same molecule, the pKd [13] was 4.84, the pKd [14] was less than 4.52 and the pKd [15] was less than 4.52. The pKd [16] was less than 4.52, the pKd [17] was less than 4.52 and the pKd [18] was less than 4.52. The pKd [19] was less than 4.52, the Selectivity ratio [20] was 229 and the Selectivity ratio [21] was 41. It also gave a Selectivity ratio [22] of 47, a Selectivity ratio [23] of 372 and a Ratio IC50 [24] of 8. For the same molecule, the pIC50 [25] was 5.50, the pIC50 [26] was 7.20 and the chromatographic logD [27] was 2.3.
